Data: ChEMBL document CHEMBL3044535, “Pharmacological profile of green tea and its polyphenols: a review” (Med Chem Res, 2012)
pIC50: −log10 of the molar value. In brackets after ≈: the same amount, converted by molar mass.

Columns and labels:
[1] = target: Urease subunit alpha/Urease subunit beta (Helicobacter pylori (strain ATCC 700392 / 26695) (Campylobacterpylori), UniProt P69996); assay: Inhibition of Helicobacter pylori urease; assay type: protein-complex assay
SK-OV-3 [2] = assay: Downregulation of CDK4 expression in Homo sapiens (human) SKOV3 cells at 25 uM after 48 hr by Western blot analysis relative to control; assay type: functional
MDA-MB-468 [3] = assay: Cytotoxicity against ER-negative Homo sapiens (human) MDA-MB-468 cells assessed as growth inhibition at 5 to 80 ug/ml after 24 to 72 hr by MTT assay; assay type: functional
Dermis [4] = assay: Antioxidant activity in Homo sapiens (human) dermis assessed as inhibition of UV-induced hydrogen peroxide production administered before UV induction at 48 hr by DHR assay; assay type: functional
SK-OV-3 [5] = assay: Downregulation of cyclin D1 expression in Homo sapiens (human) SKOV3 cells at 25 uM after 48 hr by Western blot analysis relative to control; assay type: functional
[6] = system: Stenotrophomonas maltophilia; assay: Bactericidal activity against Stenotrophomonas maltophilia clinical isolate; assay type: functional
SK-OV-3 [7] = assay: Downregulation of Bcl-XL expression in Homo sapiens (human) SKOV3 cells at 25 uM after 48 hr by Western blot analysis relative to control; assay type: functional
[8] = system: Stenotrophomonas maltophilia; assay: Antibacterial activity against Stenotrophomonas maltophilia clinical isolate by broth macrodilution method; assay type: functional
Epidermal microsome = assay: Antioxidant activity in Homo sapiens (human) epidermal microsomal fractions assessed as inhibition of UV-induced lipid peroxidation measured at 6 to 48 hr; assay type: functional; settings: Skin epidermis, dose or concentration not given here
Dermis [9] = assay: Antioxidant activity in Homo sapiens (human) dermis cytosolic form assessed as inhibition of UV-induced nitric oxide production administered before UV induction at 48 hr by Griess assay; assay type: functional
Skin epidermis [10] = assay: Antioxidant activity in Homo sapiens (human) epidermis assessed as inhibition of UV-induced hydrogen peroxide production administered before UV induction at 48 hr by DHR assay; assay type: functional
Skin epidermis [11] = assay: Antioxidant activity in Homo sapiens (human) epidermis cytosolic form assessed as inhibition of UV-induced nitric oxide production administered before UV induction at 48 hr by Griess assay; assay type: functional
SK-OV-3 [12] = assay: Downregulation of retinoblastoma expression in Homo sapiens (human) SKOV3 cells at 25 uM after 48 hr by Western blot analysis relative to control; assay type: functional
[13] = system: Stenotrophomonas maltophilia; assay: Antibacterial activity against Stenotrophomonas maltophilia clinical isolate by agar dilution method; assay type: functional
SK-OV-3 [14] = assay: Downregulation of bax expression in Homo sapiens (human) SKOV3 cells at 25 uM after 48 hr by Western blot analysis relative to control; assay type: functional
MDA-MB-468 [15] = assay: Cytotoxicity against ER-negative Homo sapiens (human) MDA-MB-468 cells assessed as inhibition of cell viability at 5 to 80 ug/ml after 24 to 72 hr by MTT assay; assay type: functional
SH-SY5Y = assay: Neuroprotective activity in Homo sapiens (human) SH-SY5Y cells assessed as increase in non amyloidogenic soluble form of amyloid precursor protein secretion at 0.1 to 10 uM after 2 hr by immunoblot analysis relative to control; assay type: functional
SK-OV-3 [16] = assay: Downregulation of p21 expression in Homo sapiens (human) SKOV3 cells at 25 uM after 48 hr by Western blot analysis relative to control; assay type: functional
PC-12 = assay: Neuroprotective activity in rat PC12 cells assessed as increase in non amyloidogenic soluble form of amyloid precursor protein secretion at 0.1 to 10 uM after 2 hr by immunoblot analysis relative to control; assay type: functional

Sequence of Urease subunit alpha/Urease subunit beta (P69996 whole entry): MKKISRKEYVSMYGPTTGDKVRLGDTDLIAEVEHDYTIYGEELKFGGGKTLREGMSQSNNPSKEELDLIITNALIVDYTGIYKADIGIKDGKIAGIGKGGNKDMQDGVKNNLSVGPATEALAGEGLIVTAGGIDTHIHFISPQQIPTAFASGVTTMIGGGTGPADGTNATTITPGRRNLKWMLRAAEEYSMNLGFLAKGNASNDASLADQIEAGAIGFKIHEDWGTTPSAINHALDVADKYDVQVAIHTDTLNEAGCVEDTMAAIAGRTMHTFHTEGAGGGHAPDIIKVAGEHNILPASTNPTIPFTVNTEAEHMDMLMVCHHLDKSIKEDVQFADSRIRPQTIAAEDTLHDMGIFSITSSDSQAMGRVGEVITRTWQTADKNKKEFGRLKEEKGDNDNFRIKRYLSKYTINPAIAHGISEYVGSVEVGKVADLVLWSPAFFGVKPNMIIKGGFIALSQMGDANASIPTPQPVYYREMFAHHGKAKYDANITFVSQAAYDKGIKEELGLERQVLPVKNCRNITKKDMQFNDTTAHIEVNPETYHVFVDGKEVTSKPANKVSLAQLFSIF
Sequence of Urease subunit alpha/Urease subunit beta (P14916 whole entry, further chain): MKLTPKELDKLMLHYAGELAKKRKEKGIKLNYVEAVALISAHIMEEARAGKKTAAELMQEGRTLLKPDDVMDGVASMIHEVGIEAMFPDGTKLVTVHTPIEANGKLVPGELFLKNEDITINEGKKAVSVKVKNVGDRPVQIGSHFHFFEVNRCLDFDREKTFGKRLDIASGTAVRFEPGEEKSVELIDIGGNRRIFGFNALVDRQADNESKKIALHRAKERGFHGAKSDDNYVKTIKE

Oc1cc(O)c2c(c1)O[C@H](c1ccc(O)c(O)c1)[C@@H](O)C2 [CATECHIN]
pIC50 [1]: 4.35

O=C(O[C@@H]1Cc2c(O)cc(O)cc2O[C@@H]1c1cc(O)c(O)c(O)c1)c1cc(O)c(O)c(O)c1 [EPIGALOCATECHIN GALLATE]
fold change (FC) (SK-OV-3 [2]): >2
growth inhibition (GI) (MDA-MB-468 [3]): 15%
inhibition (INH) (Dermis [4]): 30%
fold change (FC) (SK-OV-3 [5]): >2
MIC50 [6]: 512 µg/mL (≈ 1120 µM)
MIC90 [6]: 512 µg/mL (≈ 1120 µM)
fold change (FC) (SK-OV-3 [7]): >2
MIC50 [8]: 512 µg/mL (≈ 1120 µM)
MIC90 [8]: 512 µg/mL (≈ 1120 µM)
inhibition (Epidermal microsome): 41%
inhibition (INH) (Dermis [9]): 30%
inhibition (INH) (Skin epidermis [10]): 30%
inhibition (INH) (Skin epidermis [11]): 30%
fold change (FC) (SK-OV-3 [12]): >2
MIC50 [13]: 256 µg/mL (≈ 558 µM)
MIC90 [13]: 256 µg/mL (≈ 558 µM)
fold change (FC) (SK-OV-3 [14]): >2
inhibition (INH) (MDA-MB-468 [15]): 3%
fold change (FC) (SH-SY5Y): 6
fold change (FC) (SK-OV-3 [16]): >2
fold change (FC) (PC-12): 6
